Patent publication US20160122340A1, “HISTONE DEACETYLASE INHIBITORS BASED ON DERIVATIVES OF TRICYCLIC POLYHYDROACRIDINE AND ANALOGS POSSESSING FUSED SATURATED FIVE-AND-SEVEN-MEMBERED RINGS” (QUIMATRYX, S.L., priority 2013, published 2016)
Read-outs that look alike come from different tables or passages of the source.

Assays:
[1] = tested on: T1, Nuclear Extract from HeLa Cells; assay: HeLa nuclear extract HDAC activity inhibition; format: biochemical, human
T1 construct: 25 ng/μl Nuclear Extract from HeLa Cells: Prepared by high salt extraction of HeLa nuclei (human cervical cancer cell line)
Method: (§1) In Vitro Inhibitory Activity of Histone Deacetylase: Human Isoforms HDAC1, 2, 3, 4, 5, 6, 7, 8, 9, 10 and 11 and HeLa Cell Line Nuclear Extract (IC50 Data)
(§2) All HDAC assays were performed using acetylated AMC-labeled peptide substrate: • Substrate for isoforms HDAC1, 2, 3, 6, 10, 11 and HeLa nuclear extract assays: Acetylated fluorogenic peptide from p53 residues 379-382 (RHKKAc). • Substrate for isoforms HDAC 4, 5, 7, 9: Fluorogenic Boc-L-Lys(ε-trifluoroacetyl)-AMC. • Substrate for HDAC8 assays: Acetylated fluorogenic peptide from p53 residues 379-382 (RHKAcKAc).
[…] The reactions were carried out in a 96-well microplate for fluorometry in a 50 μl reaction volume. After the deacetylation reaction, Fluor-de-Lys-Developer (BioMol Cat. # KI-105) was added to each well to digest the deacetylated substrate, thus producing the fluorescent signal. The reaction was allowed to develop for 45 minutes at 30° C. with 5% CO2; then the fluorescent signal was measured with an excitation wavelength at 360 nm and an emission wavelength at 460 nm in a microplate-reading fluorometer (GeminiXS; Molecular Devices, Sunnyvale, Calif.). A curve of Deacetylated Standard (Biomol, Cat. # KI-142; made from 100 μM with 1:2 dilution and 10-doses, 6 μl) allowed the conversion of fluorescent signal into micromoles of deacetylated product. All experiments were performed in triplicate. IC50 was calculated by fitting the experimental data to a dose-response curve. DMSO was used as negative control; Trichostatin A (Biomol Cat. # GR-309) was used as positive control inhibitor.

[2] = molecular target: T2, Human HDAC1 (Homo sapiens, UniProt Q13547); assay: In vitro HDAC1 inhibition, fluorogenic peptide substrate; format: biochemical; details: No preincubation; read-out: IC50 (μM) HDAC-1
T2 construct: Full length with C-terminal GST tag, MW=79.9 kDa; GST (C); purchased BioMol SE-456; host or cells: baculovirus / Sf9 cells
T2 sequence (Q13547 whole entry): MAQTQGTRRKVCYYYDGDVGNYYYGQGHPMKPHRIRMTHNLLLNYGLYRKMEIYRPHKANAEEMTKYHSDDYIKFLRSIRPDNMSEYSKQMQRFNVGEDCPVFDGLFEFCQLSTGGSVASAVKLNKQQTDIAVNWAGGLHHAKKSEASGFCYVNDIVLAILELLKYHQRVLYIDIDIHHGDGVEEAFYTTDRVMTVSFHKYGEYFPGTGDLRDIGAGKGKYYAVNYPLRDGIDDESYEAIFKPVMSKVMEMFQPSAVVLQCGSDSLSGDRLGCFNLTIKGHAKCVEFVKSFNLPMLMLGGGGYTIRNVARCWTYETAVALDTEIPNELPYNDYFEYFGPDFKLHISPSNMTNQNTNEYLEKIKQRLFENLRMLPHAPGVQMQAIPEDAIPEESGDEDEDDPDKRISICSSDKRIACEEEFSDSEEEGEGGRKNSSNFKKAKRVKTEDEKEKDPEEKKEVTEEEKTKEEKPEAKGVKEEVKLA
Method: as §1, §2
(§3) 50 μM of substrate peptide (see ‘substrate peptides’ section above) and an optimal concentration of the corresponding enzyme (see ‘enzymes’ section above) in the assay buffer and 1% final concentration of DMSO were incubated in the presence of gradient concentrations of inhibitors (10-dose IC50 mode with 3-fold serial dilution) at 30° C. for 2 h. The reactions were carried out in a 96-well microplate for fluorometry in a 50 μl reaction volume. After the deacetylation reaction, Fluor-de-Lys-Developer (BioMol Cat. # KI-105) was added to each well to digest the deacetylated substrate, thus producing the fluorescent signal. The reaction was allowed to develop for 45 minutes at 30° C. with 5% CO2; then the fluorescent signal was measured with an excitation wavelength at 360 nm and an emission wavelength at 460 nm in a microplate-reading fluorometer (GeminiXS; Molecular Devices, Sunnyvale, Calif.). A curve of Deacetylated Standard (Biomol, Cat. # KI-142; made from 100 μM with 1:2 dilution and 10-doses, 6 μl) allowed the conversion of fluorescent signal into micromoles of deacetylated product. All experiments were performed in triplicate. IC50 was calculated by fitting the experimental data to a dose-response curve. DMSO was used as negative control; Trichostatin A (Biomol Cat. # GR-309) was used as positive control inhibitor.

[3] = molecular target: T3, Human HDAC2 (Homo sapiens, UniProt Q92769); assay: In vitro HDAC2 inhibition, fluorogenic peptide substrate; format: biochemical; details: read-out: IC50 (μM) HDAC-2
T3 construct: Full length with C-terminal His tag, MW=60 kDa; His (C); purchased BioMol SE-500; host or cells: baculovirus / Sf9 cells
T3 sequence (Q92769 whole entry): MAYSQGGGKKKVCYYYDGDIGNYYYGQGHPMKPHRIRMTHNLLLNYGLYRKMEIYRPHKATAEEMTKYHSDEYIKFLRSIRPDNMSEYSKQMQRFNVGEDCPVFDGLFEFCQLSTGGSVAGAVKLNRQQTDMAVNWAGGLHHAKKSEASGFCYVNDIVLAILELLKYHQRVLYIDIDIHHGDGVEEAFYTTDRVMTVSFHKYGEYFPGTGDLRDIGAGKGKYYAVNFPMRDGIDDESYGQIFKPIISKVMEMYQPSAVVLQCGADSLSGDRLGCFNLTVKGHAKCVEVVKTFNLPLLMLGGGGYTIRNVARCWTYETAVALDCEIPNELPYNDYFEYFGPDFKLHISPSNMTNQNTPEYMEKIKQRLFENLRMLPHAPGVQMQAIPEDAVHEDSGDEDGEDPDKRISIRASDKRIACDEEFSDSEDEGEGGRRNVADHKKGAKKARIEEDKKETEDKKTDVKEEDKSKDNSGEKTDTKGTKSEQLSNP
Method: as §1, §2, §3

[4] = molecular target: T4, Human HDAC6 (Homo sapiens, UniProt Q9UBN7); assay: In vitro HDAC6 inhibition, fluorogenic peptide substrate; format: biochemical; details: No preincubation; read-out: IC50 (μM) HDAC-6
T4 construct: Full length with N-terminal GST tag, MW=159 kDa; GST (N); purchased BioMol SE-508; host or cells: baculovirus / Sf9 cells
T4 sequence (Q9UBN7 1-1215): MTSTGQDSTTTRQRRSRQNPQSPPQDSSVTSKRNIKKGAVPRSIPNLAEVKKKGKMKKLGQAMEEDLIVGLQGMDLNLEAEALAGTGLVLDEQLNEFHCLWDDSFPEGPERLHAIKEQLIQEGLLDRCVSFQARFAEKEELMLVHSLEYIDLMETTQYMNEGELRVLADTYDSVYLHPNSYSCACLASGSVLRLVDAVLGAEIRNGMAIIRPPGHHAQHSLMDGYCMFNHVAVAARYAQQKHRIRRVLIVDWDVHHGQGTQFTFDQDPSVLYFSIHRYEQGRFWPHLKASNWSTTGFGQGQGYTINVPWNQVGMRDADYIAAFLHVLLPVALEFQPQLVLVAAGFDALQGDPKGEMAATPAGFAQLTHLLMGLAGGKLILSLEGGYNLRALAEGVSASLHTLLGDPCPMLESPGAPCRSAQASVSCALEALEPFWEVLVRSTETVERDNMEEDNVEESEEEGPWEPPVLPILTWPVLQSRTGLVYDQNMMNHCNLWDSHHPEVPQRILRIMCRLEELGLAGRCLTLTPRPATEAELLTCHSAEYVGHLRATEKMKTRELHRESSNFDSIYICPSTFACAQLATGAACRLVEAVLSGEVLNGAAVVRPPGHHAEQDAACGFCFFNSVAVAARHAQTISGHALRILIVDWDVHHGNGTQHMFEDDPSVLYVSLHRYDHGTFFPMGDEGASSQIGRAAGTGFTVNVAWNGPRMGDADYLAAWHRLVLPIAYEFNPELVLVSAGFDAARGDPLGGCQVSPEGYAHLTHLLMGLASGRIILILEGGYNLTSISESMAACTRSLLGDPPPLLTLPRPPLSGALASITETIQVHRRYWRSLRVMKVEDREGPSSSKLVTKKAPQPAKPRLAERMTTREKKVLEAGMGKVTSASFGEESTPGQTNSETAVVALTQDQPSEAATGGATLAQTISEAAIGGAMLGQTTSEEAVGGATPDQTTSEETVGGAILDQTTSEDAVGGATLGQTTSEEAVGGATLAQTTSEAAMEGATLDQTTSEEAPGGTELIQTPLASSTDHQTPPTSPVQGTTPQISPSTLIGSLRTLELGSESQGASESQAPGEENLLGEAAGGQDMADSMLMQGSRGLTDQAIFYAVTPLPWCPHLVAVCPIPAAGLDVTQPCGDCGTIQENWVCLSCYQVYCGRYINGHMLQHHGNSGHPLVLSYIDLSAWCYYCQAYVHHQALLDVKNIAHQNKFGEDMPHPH
Method: as §1, §2, §3

[5] = molecular target: T2, Human HDAC1; assay: In vitro HDAC1 inhibition, fluorogenic peptide substrate; format: biochemical; details: 4 h preincubation; read-out: IC50 (μM) HDAC-1

Row | Compound | melting point [°C] | IC50 [1] [µM] | IC50 [2] [µM] | IC50 ([3]; No preincubation) [µM] | IC50 [4] [µM] | IC50 ([3]; 4 h preincubation) [µM] | IC50 [5] [µM] | IC50 ([1]; 4 h preincubation) [µM] | IC50 ([1]; No preincubation) [µM]
1 | O=C(CCCCCCNc1c2c(nc3c(O)cccc13)CCCC2)NO [Example 6, N-hydroxy-7-[(5-hydroxy-1,2,3,4-tetrahydroacridin-9-yl)amino]heptanamide] | 73 | – | – | – | – | – | – | – | –
2 | O=C(NO)c1ccc(CNc2c3c(nc4ccccc24)CCCC3)cc1 [Example 9, N-hydroxy-4-{[(1,2,3,4-tetrahydroacridin-9-yl)amino]methyl}benzamide] | 204 to 205 | 0.9 | – | – | – | – | – | – | –
3 | Cc1ccc(NC(=O)CCCCCCNc2c3c(nc4ccccc24)CCCC3)c(N)c1 [Example 12, N-(2-amino-4-methylphenyl)-7-[(1,2,3,4-tetrahydroacridin-9-yl)amino]heptanamide] | 63 to 64 | – | > 50 | > 50 | > 50 | – | – | – | –
4 | Cc1ccc(N)c(NC(=O)CCCCCCNc2c3c(nc4ccccc24)CCCC3)c1 [Example 13, N-(2-amino-5-methylphenyl)-7-((1,2,3,4-tetrahydroacridin-9-yl)amino)heptanamide] | 204 to 205 | – | 57.3 | 62.9 | > 50 | 54.3 | > 50 | – | –
5 | CC(C)(C)c1ccc(N)c(NC(=O)CCCCCCNc2c3c(nc4ccccc24)CCCC3)c1 [Example 14, N-[2-amino-5-(tert-butyl)phenyl]-7-[(1,2,3,4-tetrahydroacridin-9-yl)amino]heptanamide] | 75 to 76 | – | > 50 | > 50 | – | > 50 | > 50 | > 50 | > 50
6 | Nc1ccc(-c2ccccc2)cc1NC(=O)CCCCCCNc1c2c(nc3ccccc13)CCCC2 [Example 15, N-(4-amino-[1,1′-biphenyl]-3-yl)-7-[(1,2,3,4-tetrahydroacridin-9-yl)amino]heptanamide] | 101 to 102 | – | 1.26 | 1.7 | 13.2 | 0.079 | 1.48 | 3.99 | 4.68
7 | Nc1ccc(-c2ccccc2)cc1NC(=O)CCCCCNc1c2c(nc3ccccc13)CCCC2 [Example 16, N-(4-Amino-[1,1′-biphenyl]-3-yl)-6-[(1,2,3,4-tetrahydroacridin-9-yl)amino]hexanamide] | 75 to 76 | – | – | – | – | – | – | – | –
8 | Cc1cccc(-c2ccc(N)c(NC(=O)CCCCCCNc3c4c(nc5ccccc35)CCCC4)c2)c1 [Example 17, N-(4-amino-3′-methyl-[1,1′-biphenyl]-3-yl)-7-[(1,2,3,4-tetrahydroacridin-9-yl)amino]heptanamide] | 53 to 54 | – | 250 | 188 | – | 76 | 118 | 73.6 | 84.1
9 | CC(C)(C)c1ccc(-c2ccc(N)c(NC(=O)CCCCCCNc3c4c(nc5ccccc35)CCCC4)c2)cc1 [Example 18, N-{4-amino-4′-(tert-butyl)-[1,1′-biphenyl]-3-yl}-7-[(1,2,3,4-tetrahydroacridin-9-yl)amino]heptanamide] | 55 to 56 | – | 46.7 | > 50 | – | 65.9 | 48.1 | 25.5 | 429
10 | Nc1ccc(-c2ccc3ccccc3c2)cc1NC(=O)CCCCCCNc1c2c(nc3ccccc13)CCCC2 [Example 19, N-[2-amino-5-(naphthalen-2-yl)phenyl]-7-[(1,2,3,4-tetrahydroacridin-9-yl)amino]heptanamide] | 100 to 101 | – | > 50 | > 50 | – | 72.7 | 139 | 39.3 | 17.7
11 | Nc1ncc(-c2ccccc2)cc1NC(=O)CCCCCCNc1c2c(nc3ccccc13)CCCC2 [Example 20, N-(2-amino-5-phenylpyridin-3-yl)-7-[(1,2,3,4-tetrahydroacridin-9-yl)amino]heptanamide] | 49 to 50 | – | 594 | > 50 | – | > 50 | > 50 | 109 | > 50
12 | Nc1ccc(-c2cccnc2)cc1NC(=O)CCCCCCNc1c2c(nc3ccccc13)CCCC2 [Example 21, N-[2-amino-5-(pyridin-3-yl)phenyl]-7-[(1,2,3,4-tetrahydroacridin-9-yl)amino]heptanamide] | – | – | 3.97 | 3.37 | – | 2.79 | 8.55 | 30.7 | 78.1
